# Test results taken from US20060052600A1, “Amino-functional chalcones” (priority 2002, published 2006).
# Where two headings read alike, the source gives them in different places.
# How the values were obtained:
# [1] = system: L. major promastigotes; test: Leishmania promastigote assay; settings: read-out: IC50, effect on L. major
# [2] = system: DHODH (dihydroorotate dehydrogenase); test: DHODH assay; format: biochemical; settings: test concentration not given
# [3] = system: panel of non-fastidious bacteria (Gram-positive pathogens and Eschericia coli); test: Activity against non-fastidious bacteria (panel, results in words)
# [4] = Determination of solubility; format: physicochemical
# Experimental: Solubility of the compounds was determined by preparing a saturated solution of compound in 0.3 M phosphate buffer (pH 7.4±0.3) in a brown glass tube. The suspensions were rotated slowly for 24 hours. Aliquots were centrifuged for 10 minutes at 14.000 rpm and supernatants were diluted in 40% (v/v) acetonitrile in water prior to HPLC analysis. Concentrations of analytes were quantified against a standard curve and used as term of solubility.
# The HPLC-UV method used for the assessment of solubility is the same as used in the in vitro metabolism assay.
# [5] = system: Plasmodium falciparum 3D7; test: Plasmodium falciparum assay; format: cell-based
# [6] = system: S. aureus ATCC29213; test: Killing curve determination (time-kill curve); format: cell-based, Staphylococcus aureus; settings: for bactericidal or bacteriostatic action (time-kill curve): CFU per ml at concentrations above the MIC; for MIC: S. aureus ATCC29213
# [7] = system: Staphylococcus intermedius #2357 (clinical isolate); test: MIC determination in broth microdilution assay
# [8] = system: Enterococcus faecium #17501 (vancomycin-resistant clinical isolate); test: MIC determination in broth microdilution assay
# [9] = Determination of metabolic stability (liver microsomes); format: in vitro ADME, rat; settings: for Metabolic turn-over (rat) in vitro: 20 μM, 15 min, 37° C.
# Experimental: Samples were incubated for 15 min at 37° C. and the reactions were terminated by addition of equal volumes of acetonitrile. Blank incubations were performed at the same concentration but without addition of microsomes. Both blank and microsome-containing samples were made in […] of three. […] The fraction of compound metabolised during the 15 min of incubation was determined by comparison of blank and microsome-containing samples using a Waters Alliance 2690 separation module and Waters 996 PDA-detector (Waters. […] This was followed by a 5 minutes linear gradient to initial conditions, which were maintained for 5 min. The flow rate was 0.20 ml/min and injection volume 10 μl.
# [10] = system: Eschericia coli ESS; test: MIC determination in broth microdilution assay
# [11] = system: Staphylococcus aureus ATCC29213; test: MIC determination in broth microdilution assay
# [12] = system: Streptococcus pneumoniae #998 (clinical isolate); test: MIC determination in broth microdilution assay
# [13] = system: Enterococcus faecalis ATCC29212; test: MIC determination in broth microdilution assay
# [14] = system: Staphylococcus aureus ATCC33591 (resistant to methicillin); test: MIC determination in broth microdilution assay
# [15] = system: Eschericia coli ATCC25922; test: MIC determination in broth microdilution assay
# [16] = system: Plasmodium berghei K173; test: Multiple intra venous administration in Plasmodium berghei K173 infected NMRI female mice; format: in vivo; settings: FIG. 7
# Experimental: The doses stated were administered intra venously as solutions in a suitable vehicle.
# [17] = system: Plasmodium berghei K173; test: Multiple oral administrations in Plasmodium berghei K173 infected NMRI female mice; format: in vivo; settings: FIG. 8
# [18] = system: panel of anaerobic bacteria (Bacteroides fragilis, Clostridium perfringens, Clostridium difficele); format: cell-based; settings: single concentration 100 μM
# [19] = Pharmacokinetic studies; format: in vivo, mice
# Source text: Samples of serum were taken at defined timepoints.
# The supernatant was used for the analysis.
# [20] = system: Plasmodium falciparum 7G8(Cq-res); test: Plasmodium falciparum assay, resistant strain; format: cell-based; settings: 7G8, read-out: Plasmodium falciparum IC50, 7G8(Cq-res)
# [21] = system: Plasmodium falciparum DD2 (Cq-res); test: Plasmodium falciparum assay, resistant strain; format: cell-based; settings: DD2, read-out: Plasmodium falciparum IC50, DD2 (Cq-res)
# [22] = system: Plasmodium falciparum K1(Cq-res); test: Plasmodium falciparum assay, resistant strain; format: cell-based; settings: K1, read-out: Plasmodium falciparum IC50, K1(Cq-res)
# [23] = Table 2, read-out: IC50, activity against Plasmodium falciparum 3D7
structure (smiles),measurement,setting,value
"COc1ccc(C(=O)/C=C/c2ccccc2)cc1 [4′MC, 4′methoxy chalcone, reference compound]",IC50,[1]; Leishmania major,5600 nM
same,Inhibition of DHODH,[2],7%
same,antibacterial effect,[3],no antibacterial effect at all
same,solubility at 24 h,"[4]; 0.3 M phosphate buffer, pH 7.4, aqueous buffer, thermodynamic from solid",< 50 µg/mL
same,IC50,"[5]; Plasmodium falciparum, 3D7, Table 2, read-out: IC50, activity against Plasmodium falciparum 3D7",40000 nM
"CCCCN(CCCC)c1ccc(/C=C/C(=O)c2cccc(CN(C)C)c2)cc1 [A019, (E)-3-(4-Dibutylamino-phenyl)-1-(3-dimethylaminomethyl-phenyl)-propenone]",bactericidal or bacteriostatic action (time-kill curve),[6],bactericidal
same,MIC,[6],9.4 µM
same,dependence of the bactericidal action,[6]; time-kill curve,primarily dependent on incubation time
same,"MIC, C: Staphylococcus intermedius #2357",[7],9.4 µM
same,"MIC, E: Enterococcus faecium #17501",[8],9.4 µM
same,Metabolic turn-over (rat) in vitro,[9],5%
same,"MIC, H: Eschericia coli ESS",[10],18.8 µM
same,activity against the ESS strain of E. coli,[10],considerable activity
same,"MIC, A: Staphylococcus aureus ATCC29213",[11],9.4 µM
same,"MIC, F: Streptococcus pneumoniae #998",[12],18.8 µM
same,potency against Gram-positive pathogens in comparison with Licochalcone A,[3]; Gram-positive pathogens,increased potency
same,"MIC, D: Enterococcus faecalis ATCC29212",[13],9.4 µM
same,"MIC, B: Staphylococcus aureus ATCC33591",[14],9.4 µM
"CN(C)CCCNCc1cccc(C(=O)/C=C/c2ccc(Cl)cc2Cl)c1 [A022, (E)-3-(2,4-Dichloro-phenyl)-1-{3-[(3-dimethylamino-propylamino)-methyl]-phenyl}-propenone]",Inhibition of DHODH,[2],28%
same,"MIC, C: Staphylococcus intermedius #2357",[7],37.5 µM
same,"MIC, E: Enterococcus faecium #17501",[8],18.8 µM
same,"MIC, H: Eschericia coli ESS",[10],18.8 µM
same,"MIC, A: Staphylococcus aureus ATCC29213",[11],37.5 µM
same,"MIC, G: Eschericia coli ATCC25922",[15],18.8 µM
same,"MIC, F: Streptococcus pneumoniae #998",[12],18.8 µM
same,"MIC, D: Enterococcus faecalis ATCC29212",[13],18.8 µM
same,"MIC, B: Staphylococcus aureus ATCC33591",[14],37.5 µM
"CN(C)Cc1ccccc1C(=O)/C=C/c1ccc(Cl)cc1Cl [A027, (E)-3-(2,4-Dichloro-phenyl)-1-(2-dimethylaminomethyl-phenyl)-propenone]","parasitaemia, multiple intra venous administrations",[16],significant decrease in the parasitaemia
same,"parasitaemia, multiple oral administrations",[17],significant decrease in the parasitaemia
"CCCCN(CCCC)c1ccc(/C=C/C(=O)c2ccccc2CN2CCN(C)CC2)cc1 [A031, (E)-3-(4-Dibutylamino-phenyl)-1-[2-(4-methyl-piperazin-1-ylmethyl)-phenyl]-propenone]",bactericidal or bacteriostatic action (time-kill curve),[6],bactericidal
same,MIC,[6],9.4 µM
same,activity against the ESS strain of E. coli,[10],considerable activity
"C=CC(C)(C)c1ccc(OC)c(/C=C/C(=O)c2ccccc2CN(C)C)c1 [A034, (E)-3-[5-(1,1-Dimethyl-allyl)-2-methoxy-phenyl]-1-(2-dimethylaminomethyl-phenyl)-propenone]",activity against anaerobic bacteria,[18],activity against all microorganisms within the test panel
same,IC50,[1],900 nM
"CN(Cc1ccccc1C(=O)/C=C/c1ccc(Cl)cc1Cl)C(C)(C)C [A035, (E)-1-{2-[(tert-Butyl-methyl-amino)-methyl]-phenyl}-3-(2,4-dichloro-phenyl)-propenone]",Inhibition of DHODH,[2],26%
same,IC50,[5]; [23],900 nM
"CN(C)CCN(C)Cc1ccccc1C(=O)/C=C/c1ccc(Cl)cc1Cl [A038, (E)-3-(2,4-Dichloro-phenyl)-1-(2-{[(2-dimethylamino-ethyl)-methyl-amino]-methyl}-phenyl)-propenone]",activity against anaerobic bacteria,[18],activity against all microorganisms within the test panel
same,IC50,[1],800 nM
same,Inhibition of DHODH,[2],22%
"O=C(/C=C/c1ccc(Cl)cc1Cl)c1ccccc1CN1CCNCC1 [A048, (E)-3-(2,4-Dichloro-phenyl)-1-(2-piperazin-1-ylmethyl-phenyl)-propenone]",bioavailability,[19]; mice,34%
"CCN(CC)Cc1cccc(C(=O)/C=C/c2ccc(Cl)cc2Cl)c1 [A063, (E)-3-(2,4-Dichloro-phenyl)-1-(3-diethylaminomethyl-phenyl)-propenone]",activity against anaerobic bacteria,[18],activity against all microorganisms within the test panel
same,IC50,[1],900 nM
"CN(C)Cc1cccc(/C=C/C(=O)c2ccccc2CN(C)C)c1 [A066, (E)-3-(3-Dimethylaminomethyl-phenyl)-1-(2-dimethylaminomethyl-phenyl)-propenone]",Solubility in aqueous buffer at pH 7.4,"[4]; 0.3 M phosphate buffer, 24 hours",7.4 mg/ml
same,IC50,[5]; [23],900 nM
"COc1ccc(-c2ccccc2)cc1/C=C/C(=O)c1cccc(CN(C)C)c1 [A100, (E)-1-(3-Dimethylaminomethyl-phenyl)-3-(4-methoxy-biphenyl-3-yl)-propenone]",IC50,[1],200 nM
"COc1ccc(-c2ccccc2)cc1/C=C/C(=O)c1ccc(CCN(C)C)cc1 [A117, (E)-1-[4-(2-Dimethylamino-ethyl)-phenyl]-3-(4-methoxy-biphenyl-3-yl)-propenone]","MIC, C: Staphylococcus intermedius #2357",[7],9.4 µM
same,"MIC, E: Enterococcus faecium #17501",[8],37.5 µM
same,"MIC, H: Eschericia coli ESS",[10],9.4 µM
same,"MIC, A: Staphylococcus aureus ATCC29213",[11],9.4 µM
same,"MIC, G: Eschericia coli ATCC25922",[15],150 µM
same,"MIC, F: Streptococcus pneumoniae #998",[12],37.5 µM
same,"MIC, D: Enterococcus faecalis ATCC29212",[13],37.5 µM
same,"MIC, B: Staphylococcus aureus ATCC33591",[14],9.4 µM
CCN(CC)CCCC(C)Nc1ccnc2cc(Cl)ccc12 (stereo not shown) [Chloroquine],IC50,[20],1090 nM
same,IC50,[21],1000 nM
same,IC50,"[5]; Plasmodium falciparum, 3D7, read-out: Plasmodium falciparum IC50, 3D7(Cq-sen)",130 nM
same,IC50,[22],> 1560 nM
"C=CC(C)(C)c1cc(/C=C/C(=O)c2ccc(O)cc2)c(OC)cc1O [LicA, Licochalcone A, reference compound]",IC50,[1],4600 nM
same,Inhibition of DHODH,[2],25%
same,t½ in vivo,"[19]; in vivo, species not given",10 min
same,"MIC, C: Staphylococcus intermedius #2357",[7],37.5 µM
same,"MIC, E: Enterococcus faecium #17501",[8],37.5 µM
same,metabolic turn-over in vitro,[9],100%
same,Metabolic turn-over (rat) in vitro,[9],100%
same,"MIC, H: Eschericia coli ESS",[10],300.0 µM
same,"MIC, A: Staphylococcus aureus ATCC29213",[11],37.5 µM
same,"MIC, F: Streptococcus pneumoniae #998",[12],75.0 µM
same,activity against Gram-negative bacterium Eschericia coli,[3],only modest or no activity
same,activity against common pathogenic Gram-positive non-fastidious bacteria,[3]; also against antibiotic resistant bacteria,moderate bactericidal activity
same,aqueous solubility,[4]; pH 7.4,approximately 0.01 mg/ml
same,"MIC, D: Enterococcus faecalis ATCC29212",[13],37.5 µM
same,"MIC, B: Staphylococcus aureus ATCC33591",[14],37.5 µM
same,IC50,[5]; [23],6400 nM
